Measured values from patent US20030022820A1, “IN VIVO ACTIVATION OF TUMOR-SPECIFIC CYTOTOXIC T CELLS” (priority 1995, published 2003).
Like-named read-outs stand apart in the source and are kept apart here.

Columns and labels:
HLA-A2.1 = HLA-A2.1 (Homo sapiens, UniProt P04439, D140Y/D185E/D98H/E176V/E277Q/G131W/G231S/I119V/I121R/I166T/I218V/L300P/L318F/N151K/N90K/P208A/P217A/Q86G/Q94H/R138H/R169H/T345S); test: Competition assay for peptide binding to HLA-A2.1 (inhibition of A clone 12 lysis of M1-pulsed EA2 targets)
A2.1/K^b-Tg mice = test: Peptide priming of A2.1/K^b-Tg mice, lytic activity of peptide-specific CTL; type: in vivo; settings: for A2.1/K^b-restricted peptide-specific CTL response, in words: peptide-priming of A2.1/K^b-Tg mice
[1] = E:T 60:1, T2A2/K^b targets pulsed with two mg of peptide, highest of at least three individual mice

Sequence	Lytic Activity by Peptide-Specific CTL After Priming of A2.1/K^b-Tg Mice [Specific 51Cr release (%)] (A2.1/K^b-Tg mice; [1]) [%]	A2.1/K^b-restricted peptide-specific CTL response, in words (A2.1/K^b-Tg mice)	further results
LLGRDSFEV [mur-wt-p53: 261-269]	10	No significant response	A2.1-binding activity / affinity, in words (HLA-A2.1; competition with M1 (58-66)): highest A2.1-binding activity of all p53 peptides tested
VAPAPAAPT [hu-wt-p53: 73-81]	0		
DLMLSPDDI [hu-wt-p53: 42-50]	0		
ITLEDSSGNL [hu-wt-p53: 255-264]	3	lack of CTL responsiveness	A2.1-binding activity / affinity, in words (HLA-A2.1): intermediate
LMLSPDDIEQ [hu-wt-p53: 43-52]	3		
PLDGEYFTL [hu-wt-p53: 322-330]	0	lack of CTL responsiveness	A2.1-binding activity / affinity, in words (HLA-A2.1): intermediate
VLSPLPSQAM [hu-wt-p53: 31-40]	0		
RGYVYQGL [VSV-N: 52-59, reference compound]			(%) [inhibition of A2.1-binding of M1 (58-66)] (HLA-A2.1): 4%
GLAPPQHLI [hu-wt-p53: 187-195]	1	lack of CTL responsiveness	A2.1-binding activity / affinity, in words (HLA-A2.1): high
NLLGRNSFEV [hu-wt-p53: 263-272]	3		
AAPPVAPA [hu-wt-p53: 69-76]			Lytic Activity by Peptide-Specific CTL After Priming of A2.1/K^b-Tg Mice [Specific 51Cr release (%)] (A2.1/K^b-Tg mice; mouse, in vivo): 0%
AAPPVAPAPA [hu-wt-p53: 69-78]	0		
LLPENNVLS [hu-wt-p53: 25-33]	3		
